Measured values taken from ChEMBL document CHEMBL1153296, “Design and synthesis of novel tri-aryl CB2 selective cannabinoid ligands” (Bioorg Med Chem Lett, 2009).

Legend:
[1] = species: Homo sapiens; experiment: Selectivity ratio of Ki for human CB1 receptor to Ki for human CB2 receptor
[2] = target: Cannabinoid receptor 1 (Homo sapiens, UniProt P21554); experiment: Binding affinity to human CB1 receptor transfected in HEK293 cells; assay type: cell-based
[3] = target: Cannabinoid receptor 2 (Homo sapiens, UniProt P34972); experiment: Binding affinity to human CB2 receptor transfected in HEK293 cells; assay type: cell-based
Cannabinoid receptor 2, sequence (P34972 whole entry): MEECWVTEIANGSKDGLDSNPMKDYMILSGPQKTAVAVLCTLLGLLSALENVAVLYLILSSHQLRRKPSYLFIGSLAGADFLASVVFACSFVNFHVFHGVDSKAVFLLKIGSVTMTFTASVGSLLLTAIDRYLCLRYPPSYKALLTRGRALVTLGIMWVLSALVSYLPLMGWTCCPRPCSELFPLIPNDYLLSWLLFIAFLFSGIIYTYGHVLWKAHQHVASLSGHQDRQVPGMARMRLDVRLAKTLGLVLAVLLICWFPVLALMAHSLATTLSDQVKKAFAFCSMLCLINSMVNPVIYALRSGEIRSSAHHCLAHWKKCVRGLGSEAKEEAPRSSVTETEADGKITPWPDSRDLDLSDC

Cannabinoid receptor 1, sequence (P21554 whole entry): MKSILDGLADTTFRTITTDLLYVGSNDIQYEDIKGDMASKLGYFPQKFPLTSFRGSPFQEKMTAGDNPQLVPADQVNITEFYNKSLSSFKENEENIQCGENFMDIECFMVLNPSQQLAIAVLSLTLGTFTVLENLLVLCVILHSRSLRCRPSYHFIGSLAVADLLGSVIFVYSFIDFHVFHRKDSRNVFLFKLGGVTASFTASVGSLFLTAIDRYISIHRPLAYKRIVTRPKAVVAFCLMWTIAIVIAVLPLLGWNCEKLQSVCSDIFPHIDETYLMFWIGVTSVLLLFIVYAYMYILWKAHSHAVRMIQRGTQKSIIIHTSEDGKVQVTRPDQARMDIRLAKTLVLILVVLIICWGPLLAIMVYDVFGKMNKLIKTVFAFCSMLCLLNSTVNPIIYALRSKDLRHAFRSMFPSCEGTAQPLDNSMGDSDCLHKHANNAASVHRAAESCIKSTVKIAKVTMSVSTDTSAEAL

Row | SMILES | Ratio Ki [1] | Ki [2] | Ki [3]
1 | O=C(c1ccccc1)c1cc(O)c(-c2cc(Cl)cc(Cl)c2)c(O)c1 | 9.2 |  | 
2 | COc1cc(C(O)c2ccccc2)cc(OC)c1-c1cc(Cl)cc(Cl)c1 (centres undefined) | 602 | > 1 µM | 
3 | CC1=CC[C@@H]2[C@@H](C1)c1c(O)cc(C(C)(C)c3ccccc3)cc1OC2(C)C | 13.5 |  | 
4 | COc1cc(C(=O)c2ccccc2)cc(O)c1-c1cc(Cl)cc(Cl)c1 | 210 | > 1 µM | 
5 | CC(C)(c1ccccc1)c1cc(O)c(-c2cc(Cl)cc(Cl)c2)c(O)c1 | 87.5 | 0.0937 µM | 0.00107 µM
